# B1: BMP4: human recombinant BMP4 (manufactured by R&D), BMP signal transduction pathway activating substance (protein, UniProt P12644 293-408, looked up)
# Bone morphogenetic protein 4: SPKHHSQRARKKNKNCRRHSLYVDFSDVGWNDWIVAPPGYQAFYCHGDCPFPLADHLNSTNHAIVQTLVNSVNSSIPKACCVPTELSAISMLYLDEYDKVVLKNYQEMVVEGCGCR
# Assays:
# Format in all cases: cell-based
# [1] = test system: human iPS cells (1231A3 strain); test: Bright field observation of cell aggregates in suspension culture (aggregate shape, neuroepithelium / neural tissue formation); conditions: for aggregate growth and neuroepithelium formation (bright field): Example 7, SAG 30 nM, PMA 0.2 μM or human recombinant Shh 300 ng/ml day 0, BMP4 1.5 nM day 3
# Method: The above subconfluent human iPS cells were treated with a cell dispersion solution by using TrypLE Select (Life Technologies), and further dispersed into single cells by a pipetting operation. Thereafter, the above human iPS cells dispersed into single cells were suspended in 100 μl of a serum-free medium in a non-cell-adhesive 96 well culture plate (PrimeSurface 96V-bottom plate, SUMITOMO BAKELITE) at 1.2×10^4 cells per well, and subjected to suspension culturing at 37° C., 5% CO2. As a serum-free medium (gfCDM+KSR) therefor, a 1:1 mixture of F-12 medium and IMDM medium supplemented with 10% KSR, 450 μM 1-monothioglycerol, 1× Chemically defined lipid concentrate was used. At the start of the suspension culturing (on day 0 after the start of suspension culturing, step 2 start), Y27632 (final concentration 20 μM) was added to the above serum-free medium. By day 2 after the start of suspension culturing, cell aggregates were formed (step 2 completed, and step 3 start). On day 3 after the start of suspension culturing, a serum-free medium (50 μl) free of Y27632 was added.
# On day 6 after the start of suspension culturing, a half amount of the medium was changed with a medium free of Y27632 and containing or not containing human recombinant BMP4 (manufactured by R&D) to adjust the final concentration of exogenous human recombinant BMP4 to 1.5 nM (55 ng/ml, FIG. 1B) or to give a medium free of exogenous human recombinant BMP4 (FIG. 1A). As the half-medium exchange operation, a half volume of the medium in the culture vessel, namely 75 μl, was discarded, the above fresh serum-free medium (75 μl) was added to adjust the total medium amount to 150 μl. Thereafter, a half amount of the medium was changed with the above serum-free medium free of Y27632 and human recombinant BMP4 once per 2-4 days. […]
# The thus-prepared subconfluent human iPS cells were treated with a cell dispersion solution by using TrypLE Select (Life Technologies), and further dispersed into single cells by a pipetting operation. Thereafter, the above human iPS cells dispersed into single cells were suspended in 100 μl of a serum-free medium in a non-cell-adhesive 96 well culture plate (PrimeSurface 96V-bottom plate, SUMITOMO BAKELITE) at 1.2×10^4 cells per well, and subjected to suspension culturing at 37° C., 5% CO2. As a serum-free medium (gfCDM+KSR) therefor, a 1:1 mixture of F-12 medium and IMDM medium supplemented with 10% KSR, 450 μM 1-monothioglycerol, 1× Chemically defined lipid concentrate was used. […] By day 2 after the start of suspension culturing, cell aggregates were formed (step 2 completed, step 3 start). On day 3 after the start of suspension culturing, a serum-free medium (50 μl) free of Y27632 and SAG was added. On day 6 after the start of suspension culturing, a half amount of the medium was changed with a medium free of Y27632 and containing or not containing human recombinant BMP4 (manufactured by R&D) to adjust the final concentration of exogenous human recombinant BMP4 to 1.5 nM (55 ng/ml, FIG. 1D) or to give a medium free of exogenous human recombinant BMP4 (FIG. 1C). As the half-medium exchange operation, a half volume of the medium in the culture vessel, namely 75 μl, was discarded, the above fresh serum-free medium (75 μl) was added to adjust the total medium amount to 150 μl. Thereafter, a half amount of the medium was changed with the above serum-free medium free of Y27632, SAG and human recombinant BMP4 once per 2-4 days. […]
# The thus-prepared subconfluent human iPS cells were treated with the cell dispersion solution by using TrypLE Select (Life Technologies), further dispersed into single cells by pipetting operation, and the above human iPS cells dispersed into single cells were suspended in 100 μl of a serum-free medium at 1.2×10^4 cells per well of a non-cell-adhesive 96-well culture plate (PrimeSurface 96V-bottom plate, manufactured by SUMITOMO BAKELITE). Thereafter, the cells were subjected to suspension culturing at 37° C., 5% CO2. […]
# [2] = test system: human iPS cells (201B7 strain); test: Bright field observation of cell aggregates in suspension culture (neuroepithelium formation); conditions: Example 6; StemFit; SAG 30 nM, Purmorphamine 0.2 μM or human recombinant Shh 50 ng/ml day 0; BMP4 1.5 nM day 3; day 18
# Method: The thus-prepared subconfluent human iPS cells were treated with the cell dispersion solution by using TrypLE Select (manufactured by Life Technologies), further dispersed into single cells by pipetting operation, and the above human iPS cells dispersed into single cells were suspended in 100 μl of a serum-free medium at 1.2×10^4 cells per well of a non-cell-adhesive 96-well culture plate (PrimeSurface 96V-bottom plate, SUMITOMO BAKELITE). Thereafter, the cells were subjected to suspension culturing at 37° C., 5% CO2. As the serum-free medium (gfCDM+KSR) therefor, a serum-free medium which is a 1:1 mixture of F-12 medium and IMDM medium supplemented with 10% KSR, 450 μM 1-monothioglycerol, 1× Chemically defined lipid concentrate was used. At the time of the start of suspension culturing (day 0 after the start of suspension culturing, start of step 2), a serum-free medium supplemented with SAG (final concentration […]) as a Shh signal transduction pathway activating substance and Y27632 (20 μM) was used (FIG. 5A-D). By day 2 after the start of suspension culturing, cell aggregates were formed. On day 3 after the start of suspension culturing, a serum-free medium (50 μl) free of Y27632 and SAG was added. […] The thus-prepared cell aggregates were subjected to bright field observation under an inverted microscope (BIOREVO manufactured by KEYENCE) on day 18 after the start of suspension culturing.
# The thus-prepared subconfluent human iPS cells were treated with the cell dispersion solution by using TrypLE Select (manufactured by Life Technologies), further dispersed into single cells by pipetting operation, and the above human iPS cells dispersed into single cells were suspended in 100 μl of a serum-free medium at 1.0×10^4 cells per well of a non-cell-adhesive 96-well culture plate (SUMILON SPHEROID V-bottom plate PrimeSurface 96V-bottom plate, SUMITOMO BAKELITE). Thereafter, the cells were subjected to suspension culturing at 37° C., 5% CO2. As the serum-free medium (gfCDM+KSR) therefor, a serum-free medium which is a 1:1 mixture of F-12 medium and IMDM medium supplemented with 10% KSR, 450 μM 1-monothioglycerol, 1× Chemically defined lipid concentrate was used. At the time of the start of suspension culturing (day 0 after the start of suspension culturing, start of step 2), the above serum-free medium supplemented with Y27632 (final concentration 20 μM) and further supplemented with SAG (final concentration 30 nM), Purmorphamine (manufactured by Wako, final concentration 0.2 μM), or human recombinant Shh (manufactured by R&D, Recombinant N-Terminus, final concentration 50 ng/ml) as a Shh signal transduction pathway activating substance was used (FIG. 8). On day 2 after the start of suspension culturing, a cell aggregates were formed. […]
# [3] = test system: human iPS cells (1231A3 strain); test: Immunostaining of aggregate cryosections for retinal tissue markers Chx10 and Rx; conditions: Example 7, BMP4 1.5 nM day 3, day 18
# Description: The above cell aggregates on day 19 after the start of suspension culturing were each fixed with 4% para-formaldehyde to give cryosections. These cryosections were immunostained for Chx10 (anti-Chx10 antibody, manufactured by Exalpha, sheep), which is one of the retinal tissue markers, or Rx (anti-Rx antibody, manufactured by TAKARA, guinea pig), which is one of the retinal tissue markers. In judgment of whether the above marker is positive in the immunostaining analysis, a fluorescence intensity which is not less than 2 times higher than that of the background was taken as positive.
# The thus-prepared cell aggregates on day 18 after the start of suspension culturing, which were produced by adding SAG in step 2 from feeder-free iPS cells as a starting material, were fixed with 4% para-formaldehyde to produce frozen sections. These frozen sections were immunostained for Chx10 (anti-Chx10 antibody, Exalpha, sheep), which is one of the retinal tissue markers, or Rx (anti-Rx antibody, manufactured by TAKARA, guinea pig), which is one of the retinal tissue markers. These immunostained sections were observed under an inverted fluorescence microscope.
# The cell aggregates on day 18 after the start of suspension culturing were fixed with 4% para-formaldehyde to produce frozen sections. These frozen sections were immunostained for Chx10 (anti-Chx10 antibody, Exalpha, sheep), which is one of the retinal tissue markers.
# [4] = Comparative Example 1, StemFit, no SAG, BMP4 1.5 nM on day 6, observed day 19
# [5] = Example 2 Condition 2, Essential 8, no SAG, BMP4 1.5 nM day 6, day 18
molecule,measurement,setting,value
"c1ccc2c(Oc3nc(Nc4ccc(N5CCOCC5)cc4)c4ncn(C5CCCCC5)c4n3)cccc2c1 [PMA, 9-cyclohexyl-N-[4-(4-morpholinyl)phenyl]-2-(l-naphthalenyloxy)-9H-purin-6-amine]",aggregate growth and neuroepithelium formation (bright field),"[1]; StemFit, day 18",cell aggregates grew and neuroepithelium was formed
same,neuroepithelium formation (bright field),[2],neuroepithelium was formed
same,proportion of Chx10-positive cells in the total cells,[3]; PMA 0.2 μM day 0,not more than 60%
"Shh: human recombinant Shh (manufactured by R&D, Recombinant N-Terminus), Sonic hedgehog signal transduction pathway activating substance",aggregate growth and neuroepithelium formation (bright field),"[1]; StemFit, day 18",cell aggregates grew and neuroepithelium was formed
same,neuroepithelium formation (bright field),[2],neuroepithelium was formed
same,presence of Chx10-positive cells in the cell aggregate,[3]; SAG 30 nM or Shh 300 ng/ml day 0,contained Chx10-positive cells
B1,cell aggregates collapsed,[1]; [4],not less than 90%
same,neural tissue formation efficiency,[1]; [4],poor
same,cell aggregates collapsed,[1]; [5],not less than 80%
same,formation efficiency of neural tissue,[1]; [5],poor
